This note sets out measurements from ChEMBL document CHEMBL1153238, “Spirodiketopiperazine-based CCR5 antagonists: Improvement of their pharmacokinetic profiles” (Bioorg Med Chem Lett, 2010).

The target of data set [1] is C-C chemokine receptor type 5 (Homo sapiens, UniProt P51681). In words: Antagonist activity at human CCR5 receptor overexpressed in CHO cells assessed as inhibition of MIP-1-alpha-induced calcium mobilization. The format is functional, cell-based. (In general: Calcium flux is commonly read through the fluorescence of an indicator in the cells.)
Chain of C-C chemokine receptor type 5 (P51681 whole entry): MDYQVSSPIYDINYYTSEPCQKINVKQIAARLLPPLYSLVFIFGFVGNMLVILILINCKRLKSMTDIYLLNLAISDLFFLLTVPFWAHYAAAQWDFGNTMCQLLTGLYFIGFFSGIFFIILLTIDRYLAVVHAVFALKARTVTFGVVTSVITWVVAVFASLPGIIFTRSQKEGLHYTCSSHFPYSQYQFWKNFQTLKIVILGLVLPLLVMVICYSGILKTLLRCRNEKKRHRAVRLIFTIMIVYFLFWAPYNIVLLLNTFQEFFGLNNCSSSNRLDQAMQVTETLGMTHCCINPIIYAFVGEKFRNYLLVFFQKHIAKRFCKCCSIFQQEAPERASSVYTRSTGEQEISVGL
The next data set concerns Liver microsomes. In words: Metabolic stability in rat liver microsomes assessed as compound remaining after 15 mins. It counts as ADME, Microsome. As to conditions: 0.25 h.
The nature of data set [2]: Cmax in rat at 30 mg/kg, po administered as single dose. The format is ADME, organism-based. Details: dose 30 mg/kg, route oral. To be noted: in vivo.
For data set [3], the system named is Rattus norvegicus. In words: Half life in rat at 30 mg/kg, po administered as single dose. It counts as ADME, organism-based. Set-up: dose 30 mg/kg, route oral. To be noted: in vivo.
The test system of data set [4] is Rattus norvegicus. In words: AUC (0 to infinity) in rat at 30 mg/kg, po administered as single dose. The format is ADME, organism-based, Plasma. Set-up: time infinity, dose 30 mg/kg, route oral. To be noted: in vivo.
Data set [5] concerns Rattus norvegicus. The data set can be described thus: Bioavailability in rat at 30 mg/kg, po administered as single dose. The format is ADME, organism-based. As to conditions: in vivo.
The test system of data set [6] is Rattus norvegicus. In words: AUC (0 to infinity) in rat at 30 mg/kg, iv. The format is ADME, organism-based, Plasma. Set-up: time infinity, dose 30 mg/kg, route intravenous. To be noted: in vivo.
The test system of data set [7] is Rattus norvegicus. The data set can be described thus: Half life in rat at 30 mg/kg, iv. It counts as ADME, organism-based. Set-up: dose 30 mg/kg, route intravenous. As to conditions: in vivo.
Data set [8] is described as follows: Solubility of the compound. It counts as physicochemical.
The test system of data set [9] is Human immunodeficiency virus 1. The data set can be described thus: Antiviral activity against HIV1 Ba-L(R5) infected in human PBMC by p24 antigen capture assay. As to conditions: Human immunodeficiency virus 1, Ba-L(R5).

Molecules are shown by their SMILES. Some results are limits rather than exact numbers.

The term IC50 denotes the concentration that inhibits the measured activity by half. With `CCCCN1C(=O)C(CC(C)C)NC(=O)C12CCN(Cc1ccc3c(c1)OCCO3)CC2` (racemic), in data set [1], the IC50 came to 180 nM.
As a reminder, the Cmax is the peak of the concentration-time curve. Usually AUC stands for the area under the concentration-time curve, a measure of exposure. Lower therefore signals less exposure. In general, solubility refers to the dissolved amount per volume that the medium holds. Higher therefore signals a readily soluble substance. As for `CCCCN1C(=O)C(CC2CCCCC2)NC(=O)C12CCN(Cc1ccc(Oc3ccccc3)cc1)CC2.Cl` (racemic), the Stability in the data set on Liver microsomes is reported as 33%. This compound returned a maximum concentration (Cmax) in data set [2] of 16.7 ng/mL. The t1/2 in the data set on Rattus norvegicus [3] stood at 1.72 h; in the data set with Rattus norvegicus [7], 0.332 h. Moreover, the AUC in the data set on Rattus norvegicus [4] was found to be 74.4 ng·h/mL; in the data set with Rattus norvegicus [6], 400 ng·h/mL. The same compound had a F with Rattus norvegicus [5] of 1.9%. The solubility in data set [8] was < 5 µM.
Take `Cc1c(O)cccc1C(=O)N[C@@H](CSc1ccccc1)[C@H](O)CN1C[C@H]2CCCC[C@H]2C[C@H]1C(=O)NC(C)(C)C`: it took 12 nM to reach half-maximal inhibition in data set [9] (IC50).
